Measured values taken from patent publication US20230365546A1, “5-SUBSTITUTED INDOLE 3-AMIDE DERIVATIVES, PREPARATION METHOD AND USE THEREOF” (ORIGIANT PHARMACEUTICAL CO., LTD, priority 2020, published 2023).

Assays:
Experiment in all cases: Kinase Profiler 10 μM panel
eEF-2K(h) = eEF-2K(h) (Homo sapiens (Human), UniProt O00418)
Experimental: (§1) In vitro kinase assays were conducted using Kinase Profiler services provided by Eurofins. The experimental method was as follows: the small molecule compound to be tested (0.001-10 μM), the protein kinase to be tested were incubated with a buffer containing substrate, 10 mM magnesium acetate, and [γ-^33P-ATP], the reaction was started by adding Mg\TPmix, after incubation for a period of time at room temperature, a 3% phosphate solution was added to the buffer to stop the reaction. Subsequently, 10 μL of the reaction mixture was quantitatively pipetted onto P30 filter paper, which was washed three times with 75 mM phosphate solution and then once with methanol. The P30 filter paper was air-dried and scintillation fluid was added for scintillation counting.

PAK2(h) = PAK2(h) (Homo sapiens (Human), UniProt Q13177)
Experimental: as §1

PEK(h) = PEK(h) (Homo sapiens (Human), UniProt Q9NZJ5)
Experimental: as §1

TTK(h) = TTK(h) (Homo sapiens (Human), UniProt P33981)
Experimental: as §1

ROCK-II(r) = ROCK-II(r) (Rattus norvegicus (Rat), UniProt Q62868)
Experimental: as §1

MARK3(h) = MARK3(h) (Homo sapiens (Human), UniProt P27448)
Experimental: as §1

PRAK(h) = PRAK(h) (Homo sapiens (Human), UniProt Q8IW41)
Experimental: as §1

GCN2(h) = GCN2(h) (Homo sapiens (Human), UniProt Q9P2K8)
Experimental: as §1

CDK4/cyclinD3(h) = CDK4/cyclinD3(h) (Homo sapiens (Human), UniProt P11802)
Experimental: as §1

c-RAF(h) = c-RAF(h) (Homo sapiens (Human), UniProt P04049, Y340D/Y341D)
Experimental: as §1

Fgr(h) = Fgr(h) (Homo sapiens (Human), UniProt P09769)
Experimental: as §1

ZIPK(h) = ZIPK(h) (Homo sapiens (Human), UniProt O43293)
Experimental: as §1

ACTR2(h) = ACTR2(h) (Homo sapiens (Human), UniProt P27037)
Experimental: as §1

IRE1(h) = IRE1(h) (Homo sapiens (Human), UniProt O75460)
Experimental: as §1

SGK(h) = SGK(h) (Homo sapiens (Human), UniProt O00141)
Experimental: as §1

A-Raf(h) = A-Raf(h) (Homo sapiens (Human), UniProt P10398)
Experimental: as §1

[1] = target: PI3 Kinase (p110a(H1047R)/p85a)(m) (Mus musculus (Mouse), UniProt P42337, H1047R)
Experimental: as §1

MAP4K4(h) = MAP4K4(h) (Homo sapiens (Human), UniProt O95819)
Experimental: as §1

MKK6(h) = MKK6(h) (Homo sapiens (Human), UniProt P52564)
Experimental: as §1

MKK3(h) = MKK3(h) (Homo sapiens (Human), UniProt P46734)
Experimental: as §1

DMPK(h) = DMPK(h) (Homo sapiens (Human), UniProt Q09013)
Experimental: as §1

DRAK2(h) = DRAK2(h) (Homo sapiens (Human), UniProt O94768)
Experimental: as §1

PKCι(h) = PKCι(h) (Homo sapiens (Human), UniProt P41743)
Experimental: as §1

Plk4(h) = Plk4(h) (Homo sapiens (Human), UniProt O00444)
Experimental: as §1

Txk(h) = Txk(h) (Homo sapiens (Human), UniProt P42681)
Experimental: as §1

Bmx(h) = Bmx(h) (Homo sapiens (Human), UniProt P51813)
Experimental: as §1

GCK(h) = GCK(h) (Homo sapiens (Human), UniProt Q12851)
Experimental: as §1

CDK7/cyclinH/MAT1(h) = CDK7/cyclinH/MAT1(h) (Homo sapiens (Human), UniProt P50613)
Experimental: as §1

ASK1(h) = ASK1(h) (Homo sapiens (Human), UniProt Q99683)
Experimental: as §1

MAK(h) = MAK(h) (Homo sapiens (Human), UniProt P20794)
Experimental: as §1

DRAK1(h) = DRAK1(h) (Homo sapiens (Human), UniProt Q9UEE5)
Experimental: as §1

Ros(h) = Ros(h) (Homo sapiens (Human), UniProt P08922)
Experimental: as §1

NEK11(h) = NEK11(h) (Homo sapiens (Human), UniProt Q8NG66)
Experimental: as §1

TSSK2(h) = TSSK2(h) (Homo sapiens (Human), UniProt Q96PF2)
Experimental: as §1

Sequence of MARK3(h) (P27448 whole entry): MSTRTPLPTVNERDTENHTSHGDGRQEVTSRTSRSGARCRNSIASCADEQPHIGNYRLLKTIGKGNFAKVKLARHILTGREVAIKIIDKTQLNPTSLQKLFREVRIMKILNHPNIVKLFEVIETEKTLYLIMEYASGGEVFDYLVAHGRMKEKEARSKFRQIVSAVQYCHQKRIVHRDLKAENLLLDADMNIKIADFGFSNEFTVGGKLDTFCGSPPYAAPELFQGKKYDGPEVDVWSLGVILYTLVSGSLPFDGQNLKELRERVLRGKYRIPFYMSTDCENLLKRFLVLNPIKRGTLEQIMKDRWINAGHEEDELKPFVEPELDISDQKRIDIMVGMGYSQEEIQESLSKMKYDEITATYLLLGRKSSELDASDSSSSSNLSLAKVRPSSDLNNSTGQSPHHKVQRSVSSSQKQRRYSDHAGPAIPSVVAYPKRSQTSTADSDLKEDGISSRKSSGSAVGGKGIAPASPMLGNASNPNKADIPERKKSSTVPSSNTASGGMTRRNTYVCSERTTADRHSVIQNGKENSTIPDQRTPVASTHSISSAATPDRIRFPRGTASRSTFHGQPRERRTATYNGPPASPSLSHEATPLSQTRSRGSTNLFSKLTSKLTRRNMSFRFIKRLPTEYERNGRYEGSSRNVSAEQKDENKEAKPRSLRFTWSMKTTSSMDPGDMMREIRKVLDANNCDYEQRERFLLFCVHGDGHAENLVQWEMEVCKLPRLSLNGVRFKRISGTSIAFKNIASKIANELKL
Sequence of NEK11(h) (Q8NG66 whole entry): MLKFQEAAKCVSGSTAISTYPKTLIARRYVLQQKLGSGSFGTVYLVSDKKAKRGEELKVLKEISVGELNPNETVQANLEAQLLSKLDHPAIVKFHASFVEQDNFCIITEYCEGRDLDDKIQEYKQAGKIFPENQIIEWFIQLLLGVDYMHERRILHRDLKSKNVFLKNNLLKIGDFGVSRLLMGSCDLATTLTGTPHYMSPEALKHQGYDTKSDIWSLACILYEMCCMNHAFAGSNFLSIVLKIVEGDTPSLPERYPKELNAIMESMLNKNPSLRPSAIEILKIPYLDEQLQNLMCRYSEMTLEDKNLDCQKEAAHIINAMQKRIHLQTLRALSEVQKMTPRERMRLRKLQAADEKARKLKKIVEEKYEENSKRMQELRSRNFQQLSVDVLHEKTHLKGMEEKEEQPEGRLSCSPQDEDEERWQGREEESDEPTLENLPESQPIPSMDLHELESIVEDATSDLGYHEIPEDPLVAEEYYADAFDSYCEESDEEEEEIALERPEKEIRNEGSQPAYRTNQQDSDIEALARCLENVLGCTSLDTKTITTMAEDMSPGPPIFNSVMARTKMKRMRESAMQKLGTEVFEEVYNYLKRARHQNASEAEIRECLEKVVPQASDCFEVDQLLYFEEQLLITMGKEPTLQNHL
Sequence of GCK(h) (Q12851 whole entry): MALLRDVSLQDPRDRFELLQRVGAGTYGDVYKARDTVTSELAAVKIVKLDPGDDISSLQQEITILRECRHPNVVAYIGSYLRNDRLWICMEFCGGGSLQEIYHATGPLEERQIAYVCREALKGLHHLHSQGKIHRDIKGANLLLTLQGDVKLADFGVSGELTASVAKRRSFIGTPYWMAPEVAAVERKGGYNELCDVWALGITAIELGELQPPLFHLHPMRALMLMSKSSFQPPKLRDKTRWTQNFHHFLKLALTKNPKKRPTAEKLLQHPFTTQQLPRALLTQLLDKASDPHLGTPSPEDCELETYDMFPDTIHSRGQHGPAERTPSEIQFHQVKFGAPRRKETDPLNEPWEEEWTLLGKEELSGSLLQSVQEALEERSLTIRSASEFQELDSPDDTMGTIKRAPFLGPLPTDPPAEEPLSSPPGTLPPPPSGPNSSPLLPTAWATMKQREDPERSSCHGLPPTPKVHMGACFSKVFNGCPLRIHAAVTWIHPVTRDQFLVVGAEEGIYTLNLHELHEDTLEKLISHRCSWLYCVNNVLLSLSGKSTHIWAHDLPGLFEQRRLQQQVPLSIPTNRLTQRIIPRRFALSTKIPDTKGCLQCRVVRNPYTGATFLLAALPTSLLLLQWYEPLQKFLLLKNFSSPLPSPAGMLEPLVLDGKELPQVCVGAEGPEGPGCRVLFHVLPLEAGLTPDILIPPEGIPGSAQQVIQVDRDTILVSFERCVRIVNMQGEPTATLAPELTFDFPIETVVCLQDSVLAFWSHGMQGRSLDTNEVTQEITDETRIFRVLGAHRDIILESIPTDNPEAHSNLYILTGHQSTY
Sequence of DMPK(h) (Q09013 whole entry): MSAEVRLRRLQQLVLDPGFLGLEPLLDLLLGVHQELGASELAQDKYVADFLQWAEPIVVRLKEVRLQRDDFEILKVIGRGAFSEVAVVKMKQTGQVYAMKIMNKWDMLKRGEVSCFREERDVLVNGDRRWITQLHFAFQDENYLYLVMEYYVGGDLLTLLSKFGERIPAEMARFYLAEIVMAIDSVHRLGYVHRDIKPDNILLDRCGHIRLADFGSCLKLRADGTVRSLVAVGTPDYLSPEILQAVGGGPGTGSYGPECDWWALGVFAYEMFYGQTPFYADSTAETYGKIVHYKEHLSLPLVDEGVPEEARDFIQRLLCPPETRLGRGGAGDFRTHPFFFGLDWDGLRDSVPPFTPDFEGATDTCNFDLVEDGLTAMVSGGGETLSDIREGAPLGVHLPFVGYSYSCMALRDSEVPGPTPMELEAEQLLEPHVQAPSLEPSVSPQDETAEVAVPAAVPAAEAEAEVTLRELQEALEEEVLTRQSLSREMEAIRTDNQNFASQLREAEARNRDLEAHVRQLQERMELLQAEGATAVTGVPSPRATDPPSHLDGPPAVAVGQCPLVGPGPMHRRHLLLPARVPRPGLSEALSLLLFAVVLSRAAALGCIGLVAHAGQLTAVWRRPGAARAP
Sequence of Bmx(h) (P51813 whole entry): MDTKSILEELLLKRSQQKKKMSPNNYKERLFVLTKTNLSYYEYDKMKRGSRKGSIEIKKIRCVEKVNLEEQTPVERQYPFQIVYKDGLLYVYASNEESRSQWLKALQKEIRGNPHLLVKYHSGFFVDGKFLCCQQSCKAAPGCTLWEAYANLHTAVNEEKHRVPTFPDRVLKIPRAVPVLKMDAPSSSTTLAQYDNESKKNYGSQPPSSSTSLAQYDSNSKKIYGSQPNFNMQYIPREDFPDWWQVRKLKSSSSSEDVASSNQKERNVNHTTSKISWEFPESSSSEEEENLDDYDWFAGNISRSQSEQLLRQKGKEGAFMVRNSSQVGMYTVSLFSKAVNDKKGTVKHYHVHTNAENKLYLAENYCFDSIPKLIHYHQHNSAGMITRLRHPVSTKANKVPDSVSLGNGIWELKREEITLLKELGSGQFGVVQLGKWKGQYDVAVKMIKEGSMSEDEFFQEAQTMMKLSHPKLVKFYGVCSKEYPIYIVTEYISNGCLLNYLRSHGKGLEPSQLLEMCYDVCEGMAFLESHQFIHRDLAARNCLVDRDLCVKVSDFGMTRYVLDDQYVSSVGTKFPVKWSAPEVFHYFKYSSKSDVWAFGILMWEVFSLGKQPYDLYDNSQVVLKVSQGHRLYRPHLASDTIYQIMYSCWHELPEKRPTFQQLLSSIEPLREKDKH
Sequence of CDK7/cyclinH/MAT1(h) (P50613 whole entry): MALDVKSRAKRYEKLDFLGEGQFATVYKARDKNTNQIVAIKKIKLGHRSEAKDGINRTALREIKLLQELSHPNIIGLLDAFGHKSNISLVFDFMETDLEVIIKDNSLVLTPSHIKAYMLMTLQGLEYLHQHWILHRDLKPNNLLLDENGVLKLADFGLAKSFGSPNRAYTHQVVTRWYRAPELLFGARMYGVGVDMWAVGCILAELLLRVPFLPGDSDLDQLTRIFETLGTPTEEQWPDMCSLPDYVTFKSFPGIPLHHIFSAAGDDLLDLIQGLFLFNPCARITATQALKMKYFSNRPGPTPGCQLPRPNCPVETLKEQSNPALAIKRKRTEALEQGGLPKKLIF
Sequence of CDK7/cyclinH/MAT1(h) (P51946 whole entry partner): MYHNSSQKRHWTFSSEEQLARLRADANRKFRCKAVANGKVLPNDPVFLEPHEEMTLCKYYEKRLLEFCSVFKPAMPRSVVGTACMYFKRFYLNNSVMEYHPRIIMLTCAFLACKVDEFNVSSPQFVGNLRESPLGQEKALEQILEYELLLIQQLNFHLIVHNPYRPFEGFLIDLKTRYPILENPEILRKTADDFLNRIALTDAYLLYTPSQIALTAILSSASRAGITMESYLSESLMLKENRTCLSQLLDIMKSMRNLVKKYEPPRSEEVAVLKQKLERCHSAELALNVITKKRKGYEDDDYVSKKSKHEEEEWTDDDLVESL
Sequence of CDK7/cyclinH/MAT1(h) (P51948 whole entry partner): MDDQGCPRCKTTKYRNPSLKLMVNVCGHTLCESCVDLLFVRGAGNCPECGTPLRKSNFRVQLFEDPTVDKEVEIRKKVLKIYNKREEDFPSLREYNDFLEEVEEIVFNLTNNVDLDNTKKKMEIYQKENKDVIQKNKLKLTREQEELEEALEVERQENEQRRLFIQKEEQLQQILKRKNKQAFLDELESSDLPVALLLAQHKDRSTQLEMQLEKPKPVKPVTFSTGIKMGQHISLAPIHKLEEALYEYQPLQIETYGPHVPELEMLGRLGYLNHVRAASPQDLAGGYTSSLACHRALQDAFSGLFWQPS
Sequence of ZIPK(h) (O43293 whole entry): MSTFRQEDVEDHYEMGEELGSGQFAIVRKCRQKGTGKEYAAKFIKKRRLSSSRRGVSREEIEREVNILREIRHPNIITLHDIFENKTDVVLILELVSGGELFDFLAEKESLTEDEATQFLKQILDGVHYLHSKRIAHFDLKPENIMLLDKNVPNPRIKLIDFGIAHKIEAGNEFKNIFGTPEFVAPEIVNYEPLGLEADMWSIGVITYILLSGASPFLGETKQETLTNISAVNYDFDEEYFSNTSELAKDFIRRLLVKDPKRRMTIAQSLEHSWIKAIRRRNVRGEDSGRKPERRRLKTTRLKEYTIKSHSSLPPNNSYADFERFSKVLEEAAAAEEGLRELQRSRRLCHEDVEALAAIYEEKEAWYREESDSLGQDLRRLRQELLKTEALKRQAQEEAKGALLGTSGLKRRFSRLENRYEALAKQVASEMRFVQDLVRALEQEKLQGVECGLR

C[C@H](NC(=O)c1c[nH]c2ccc(-c3ccc4nc(NC(=O)C5CC5)sc4c3)cc12)c1cccc(F)c1 [Compound 34, (S)-5-(2-(cyclopropanecarboxamido)benzo[d]thiazol-6-yl)-N-(1-(3-fluorophenyl)ethyl)-1H-indole-3-carboxamide]
Inhibition ratio (eEF-2K(h)): −41%
Inhibition ratio (PAK2(h)): 19%
Inhibition ratio (PEK(h)): 1%
Inhibition ratio (TTK(h)): 55%
Inhibition ratio (ROCK-II(r)): 12%
Inhibition ratio (MARK3(h)): 0%
Inhibition ratio (PRAK(h)): 27%
Inhibition ratio (GCN2(h)): 14%
Inhibition ratio (CDK4/cyclinD3(h)): −5%
Inhibition ratio (c-RAF(h)): 15%
Inhibition ratio (Fgr(h)): 42%
Inhibition ratio (ZIPK(h)): −4%
Inhibition ratio (ACTR2(h)): 6%
Inhibition ratio (IRE1(h)): 16%
Inhibition ratio (SGK(h)): 2%
Inhibition ratio (A-Raf(h)): −1%
Inhibition ratio [1]: 17%
Inhibition ratio (MAP4K4(h)): 98%
Inhibition ratio (MKK6(h)): 7%
Inhibition ratio (MKK3(h)): 35%
Inhibition ratio (DMPK(h)): 10%
Inhibition ratio (DRAK2(h)): 18%
Inhibition ratio (PKCι(h)): −4%
Inhibition ratio (Plk4(h)): 14%
Inhibition ratio (Txk(h)): 47%
Inhibition ratio (Bmx(h)): 54%
Inhibition ratio (GCK(h)): 62%
Inhibition ratio (CDK7/cyclinH/MAT1(h)): 3%
Inhibition ratio (ASK1(h)): 12%
Inhibition ratio (MAK(h)): 2%
Inhibition ratio (DRAK1(h)): 38%
Inhibition ratio (Ros(h)): 31%
Inhibition ratio (NEK11(h)): 35%
Inhibition ratio (TSSK2(h)): −6%

C[C@H](NC(=O)c1cn(C)c2ccc(-c3ccn4nc(NC(=O)C5CC5)nc4c3)cc12)c1cccc(F)c1 [Compound 94, (S)-5-(2-(cyclopropanecarboxamido)-[1,2,4]triazolo[1,5-a]pyridin-7-yl)-N-(1-(3-fluorophenyl)ethyl)-1-methyl-1H-indole-3-carboxamide]
Inhibition ratio/% (eEF-2K(h)): 26%
Inhibition ratio/% (PAK2(h)): −14%
Inhibition ratio/% (PEK(h)): 36%
Inhibition ratio/% (TTK(h)): 13%
Inhibition ratio/% (ROCK-II(r)): 52%
Inhibition ratio/% (MARK3(h)): −3%
Inhibition ratio/% (PRAK(h)): 30%
Inhibition ratio/% (GCN2(h)): 23%
Inhibition ratio/% (CDK4/cyclinD3(h)): 4%
Inhibition ratio/% (c-RAF(h)): −13%
Inhibition ratio/% (Fgr(h)): 8%
Inhibition ratio/% (ZIPK(h)): 6%
Inhibition ratio/% (ACTR2(h)): −3%
Inhibition ratio/% (IRE1(h)): 22%
Inhibition ratio/% (SGK(h)): 51%
Inhibition ratio/% (A-Raf(h)): 10%
Inhibition ratio/% [1]: 47%
Inhibition ratio/% (MAP4K4(h)): −3%
Inhibition ratio/% (MKK6(h)): 30%
Inhibition ratio/% (MKK3(h)): 38%
Inhibition ratio/% (DMPK(h)): −2%
Inhibition ratio/% (DRAK2(h)): 37%
Inhibition ratio/% (PKCι(h)): 54%
Inhibition ratio/% (Plk4(h)): 15%
Inhibition ratio/% (Txk(h)): −12%
Inhibition ratio/% (Bmx(h)): 34%
Inhibition ratio/% (GCK(h)): −6%
Inhibition ratio/% (CDK7/cyclinH/MAT1(h)): 53%
Inhibition ratio/% (ASK1(h)): 38%
Inhibition ratio/% (MAK(h)): 45%
Inhibition ratio/% (DRAK1(h)): 30%
Inhibition ratio/% (Ros(h)): −18%
Inhibition ratio/% (NEK11(h)): 44%
Inhibition ratio/% (TSSK2(h)): 52%
